Measured values from patent EP1566447A1, “Glimepiride- and insulin-induced glycosylphosphatidylinositol-specific phospholipase C regulation” (priority 2004, dated 2005).

Tests used:
[1] = system: GPI-PLC of hcDIGs from rat adipocytes; experiment: adipocyte GPI-PLC assay (cleavage of AChE, TX-114 partitioning); type: biochemical; conditions: 1 mM; hcDIGs from rat adipocytes
Procedure: Biophys. […] Each reaction mixture was subjected to TX-114 partitioning (see below).
After incubation for 1 h on ice, the mixture was layered onto a cushion of 0.4 ml of 0.25 M sucrose and 25 mM Tris/HCl (pH 7.4) on ice.
Cleavage rate was calculated from the amount of hydrophilic AChE and aP activity recovered with the TX-114-depleted phase upon TX-114 partitioning.

rat adipocytes = experiment: isoproterenol-induced lipolysis measured as release of NBD-FA; type: cell-based; conditions: 50 µM; Fig. 9 Panels A, B
Procedure: Electroporation was performed as described in "Müller, G. et al., (2000) Mol. Cell. Biol. 20: 4708-4723". Lipolysis was determined as release of glycerol or fluorescent NBD-FA from prelabeled and isoproterenol-stimulated adipocytes as described in "Müller, G. et al., (2003) Biochimie 85: 1245-1256". Gce1 was detected by photolabeling of solubilized plasma membranes or hc/IcDIGs (10-50 µg protein) with 8-N3-[^32P]cAMP and subsequent phosphorimaging as described in "Müller, G. et al., (1994) Biochemistry 33: 12149-12159". 5'-Nuc, aP and AChE activities were measured according to "Eliakim, R. et al., (1990) Biochim. Biophys. Acta […]". Protein was determined using the BCA protein determination kit from Pierce (Rockford, IL) and BSA as calibration standard. SDS-PAGE was performed using precast gels (Novex, San Diego, CA; 10 % Bis-Tris resolving gel, morpholinopropanesulfonic acid-SDS running buffer). Lumiimages were evaluated on a Lumilmager using Lumilmager software (Roche Diagnostics). Phosphor- and fluorescence images were processed and quantified using the Storm 860 Phosphorlmager system (Molecular Dynamics, Gelsenkirchen, Germany). Figures were constructed using the Adobe Photoshop software (Adobe Systems, Mountain View, CA). […]

[2] = system: patients with type 2 diabetes; conditions: cited from earlier work

Row | Compound | inhibition % at 1 mM [1] [%] | effect on the glimepiride-induced reduction of NBD-FA release (rat adipocytes) | hypoglycaemia occurred in patients ([2]; monotherapy, treated for ≤1 year) [%] | effective dosage range ([2]; patients with type 2 diabetes) [mg/day] | activation of GPI-PLC (GPI-PLC; direct incubation of hcDIGs from untreated adipocytes, Fig. 4 Panel A) | stimulation of GPI-PLC activity (GPI-PLC; hcDIGs prepared from pretreated adipocytes, Fig. 4 Panel C, 20 µM) [fold]
1 | CCCCCCCCCCCCP(=O)(OC)O[C@@H]1[C@H](O)[C@H](O)[C@@H](O)[C@H](O)[C@H]1O (stereo partly drawn) [GPI-2349, myo-inositol-1-O-dodecylphosphonic acid methylester] | 27 ± 6 | – | – | – | – | –
2 | CCC1=C(C)CN(C(=O)NCCc2ccc(S(=O)(=O)NC(=O)N[C@H]3CC[C@H](C)CC3)cc2)C1=O [Glimepiride, glimepiride] | – | completely abrogated | 10 to 20 | 0.5 to 8 | up to 4 fold | 3
